From article PMC3823697, “Intensive Mutagenesis of the Nisin Hinge Leads to the Rational Design of Enhanced Derivatives” (PLoS ONE, 2013)
Ends that are not written are not given here.

How the values were obtained:
S. aureus RF122 [1] = assay: Agar well diffusion assay with purified peptide; format: cell-based, Staphylococcus aureus; conditions: for 100 mg L^−1 Agar Diffusion Zone Area: purified peptide 100 mg L^−1, 50 µl per well, 1.5% agar seeded 0.5% with S. aureus RF122, 16 h; for 100 mg L^−1 Agar Diffusion Relative to WT (%): purified peptide 100 mg L^−1 vs S. aureus RF122, zone area relative to nisin A
S. agalactiae ATCC 13813 [2] = assay: Agar well diffusion assay with purified peptide; format: cell-based, Streptococcus agalactiae; conditions: for 100 mg L^−1 Agar Diffusion Zone Area: purified peptide 100 mg L^−1, 50 µl per well, 1.5% agar seeded 0.5% with S. agalactiae ATCC 13813, 16 h; for 100 mg L^−1 Agar Diffusion Relative to WT (%): purified peptide 100 mg L^−1 vs S. agalactiae ATCC 13813, zone area relative to nisin A
S. agalactiae ATCC 13813 [3] = assay: Minimum inhibitory concentration (MIC) assay in broth; format: cell-based, Streptococcus agalactiae; conditions: for MIC Specific Activity as % of WT: broth, BSA-pretreated 96-well plates, triplicate, 2-fold dilutions from 7.5 µM, 10^5 cfu/ml, 16 h
Procedure: (§1) Minimum inhibitory concentration assays were carried out in triplicate using 96-well plates (Sarstedt) pretreated with bovine serum albumin (BSA) as previously described. Wild type nisin and nisin derivatives were adjusted to a 500 nM (when using L. lactis as a target) or 7.5 µM (all other indicators) starting concentration and 2-fold serial dilutions of each peptide were carried out. An overnight of the target strain was subcultured and incubated to an OD600 nm of 0.5 before being diluted to give a final inoculum of 10^5cfu/ml in 200μl. The plates were incubated at an appropriate temperature and inspected after 16 hours. The MIC was determined as the lowest concentration at which no growth was visible.

L. lactis HP [4] = assay: as above; format: cell-based, Lactococcus lactis; conditions: BSA-pretreated 96-well plates, triplicate, 2-fold dilutions from 500 nM, 10^5 cfu/ml, 16 h
Procedure: as §1

M. smegmatis MC2155 [5] = assay: Deferred antagonism assay of producer strains; format: cell-based, Mycobacterium smegmatis; conditions: for Deferred Antagonism Zone Area: L. lactis NZ9800 producer spotted (approx. 3 µl) on GM17 agar, incubated 40 h, overlaid with 0.75% agar seeded 0.5% with M. smegmatis MC2155, area of zone minus area of spot; for Deferred Antagonism Relative to WT (%): producer strain vs M. smegmatis MC2155, zone area relative to wild type nisin A producer
M. smegmatis MC2155 [6] = assay: Agar well diffusion assay with purified peptide; format: cell-based, Mycobacterium smegmatis; conditions: for 100 mg L^−1 Agar Diffusion Zone Area: purified peptide 100 mg L^−1, 50 µl per well, 0.75% agar seeded 0.5% with 40 h culture of M. smegmatis MC2155, 40 h; for 100 mg L^−1 Agar Diffusion Relative to WT (%): purified peptide 100 mg L^−1 vs M. smegmatis MC2155, zone area relative to nisin A
L. lactis HP [7] = assay: Agar well diffusion assay with purified peptide; format: cell-based, Lactococcus lactis; conditions: for 100 mg L^−1 Agar Diffusion Zone Area: purified peptide 100 mg L^−1, 50 µl per well, 1.5% agar seeded 0.5% with L. lactis HP, 16 h; for 100 mg L^−1 Agar Diffusion Relative to WT (%): purified peptide 100 mg L^−1 vs L. lactis HP, zone area relative to nisin A
L. lactis HP [8] = assay: Deferred antagonism assay of producer strains; format: cell-based, Lactococcus lactis; conditions: for Deferred Antagonism Zone Area: L. lactis NZ9800 producer spotted (approx. 3 µl) on GM17 agar, 16 h 30°C, overlaid with 0.75% agar seeded 0.5% with L. lactis HP, area of zone minus area of spot; for Deferred Antagonism Relative to WT (%): producer strain vs L. lactis HP, zone area relative to wild type nisin A producer
S. aureus RF122 [9] = assay: Deferred antagonism assay of producer strains; format: cell-based, Staphylococcus aureus; conditions: for Deferred Antagonism Zone Area: L. lactis NZ9800 producer spotted (approx. 3 µl) on GM17 agar, 16 h 30°C, overlaid with 0.75% agar seeded 0.5% with S. aureus RF122, area of zone minus area of spot; for Deferred Antagonism Relative to WT (%): producer strain vs S. aureus RF122, zone area relative to wild type nisin A producer
S. agalactiae ATCC 13813 [10] = assay: Deferred antagonism assay of producer strains; format: cell-based, Streptococcus agalactiae; conditions: for Deferred Antagonism Zone Area: L. lactis NZ9800 producer spotted (approx. 3 µl) on GM17 agar, 16 h 30°C, overlaid with 0.75% agar seeded 0.5% with S. agalactiae ATCC 13813, area of zone minus area of spot; for Deferred Antagonism Relative to WT (%): producer strain vs S. agalactiae ATCC 13813, zone area relative to wild type nisin A producer
S. aureus RF122 [11] = assay: Minimum inhibitory concentration (MIC) assay in broth; format: cell-based, Staphylococcus aureus; conditions: BSA-pretreated 96-well plates, triplicate, 2-fold dilutions from 7.5 µM, 10^5 cfu/ml, 16 h
Procedure: as §1

| Substance | 100 mg L^−1 Agar Diffusion Zone Area (S. aureus RF122 [1]) | 100 mg L^−1 Agar Diffusion Relative to WT (%) (S. aureus RF122 [1]) | 100 mg L^−1 Agar Diffusion Zone Area (S. agalactiae ATCC 13813 [2]) | 100 mg L^−1 Agar Diffusion Relative to WT (%) (S. agalactiae ATCC 13813 [2]) | MIC Specific Activity as % of WT (S. agalactiae ATCC 13813 [3]) | MIC Specific Activity as % of WT (L. lactis HP [4]) | Deferred Antagonism Zone Area (M. smegmatis MC2155 [5]) | Deferred Antagonism Relative to WT (%) (M. smegmatis MC2155 [5]) | 100 mg L^−1 Agar Diffusion Zone Area (M. smegmatis MC2155 [6]) | 100 mg L^−1 Agar Diffusion Relative to WT (%) (M. smegmatis MC2155 [6]) | 100 mg L^−1 Agar Diffusion Zone Area (L. lactis HP [7]) | Deferred Antagonism Zone Area (L. lactis HP [8]) | Deferred Antagonism Relative to WT (%) (L. lactis HP [8]) | Deferred Antagonism Zone Area (S. aureus RF122 [9]) | Deferred Antagonism Relative to WT (%) (S. aureus RF122 [9]) | Deferred Antagonism Zone Area (S. agalactiae ATCC 13813 [10]) | Deferred Antagonism Relative to WT (%) (S. agalactiae ATCC 13813 [10]) | MIC Specific Activity as % of WT (S. aureus RF122 [11]) | 100 mg L^−1 Agar Diffusion Relative to WT (%) (L. lactis HP [7]) | Improvement in broth based specific activity relative to the natural peptide (S. agalactiae ATCC 13813 [3]; broth based specific activity (MIC) assay) |
| --- | --- | --- | --- | --- | --- | --- | --- | --- | --- | --- | --- | --- | --- | --- | --- | --- | --- | --- | --- | --- |
| SAA: nisin A derivative with hinge region consisting of SAA (rational design) (ITSISLCTPGCKTGALMGCSAATATCHCSIHVSK; also: nisin-type thioether rings and dehydrated residues, not located; UniProt P13068 24-57, looked up, variant N20S M21A K22A) | 130.60±4.46 mm^2 | 131.47% | 301.62±8.18 mm^2 | 122.46% | 100% | 50% | 303.85±59.93 mm^2 | 592.15% | 101.19±11.510 mm^2 | 149.27% | 344.76±18.50 mm^2 | 483.14±33.89 mm^2 | 161.28% | 236.28±13.53 mm^2 | 170.83% | 407.98±18.452 mm^2 | 180.08% | 25% | – | – |
| NAI: nisin A derivative with hinge region NAI (ITSISLCTPGCKTGALMGCNAITATCHCSIHVSK; also: nisin-type thioether rings and dehydrated residues, not located; UniProt P13068 24-57, looked up, variant M21A K22I) | 129.75±11.36 mm^2 | 130.61% | 291.52±8.46 mm^2 | 118.36% | 200% | 100% | 270.04±58.30 mm^2 | 526.26% | 78.50±8.16 mm^2 | 115.8% | 371.32±19.60 mm^2 | 439.52±47.88 mm^2 | 146.71% | – | 118.02% | 318.81±7.915 mm^2 | 140.72% | 25% | – | – |
| SLS: nisin A derivative with hinge region SLS (ITSISLCTPGCKTGALMGCSLSTATCHCSIHVSK; also: nisin-type thioether rings and dehydrated residues, not located; UniProt P13068 24-57, looked up, variant N20S M21L K22S) | 98.82±10.14 mm^2 | 99.47% | 226.05±4.10 mm^2 | 91.78% | 25% | 25% | 230.31±20.31 mm^2 | 448.84% | 119.56±8.59 mm^2 | 176.36% | 321.93±22.43 mm^2 | 370.75±28.28 mm^2 | 123.76% | 153.93±7.15 mm^2 | 111.29% | 209.45±17.11 mm^2 | 92.45% | <6% | 120.26% | – |
| AAA: nisin A derivative with hinge region consisting of AAA (rational design) (ITSISLCTPGCKTGALMGCAAATATCHCSIHVSK; not fully specified; also: nisin-type thioether rings and dehydrated residues, not located; UniProt P13068 24-57, looked up, variant N20A M21A K22A) | 155.77±3.30 mm^2 | 156.81% | 305.58±2.39 mm^2 | 124.06% | 200% | 100% | 277.65±60.42 mm^2 | 541.09% | 149.24±4.776 mm^2 | 220.15% | 416.00±17.99 mm^2 | 492.83±40.27 mm^2 | 164.51% | 292.24±11.46 mm^2 | 211.29% | 401.32±15.62 mm^2 | 177.14% | 25% | 155.41% | two-fold improvement |
| Nisin A (ITSISLCTPGCKTGALMGCNMKTATCHCSIHVSK; not fully specified; Lantibiotic nisin-A; UniProt P13068 24-57, looked up) [WT, 34 amino acid lantibiotic with three dehydrated amino acids and five thioether rings; hinge N20-M21-K22, reference compound] | 99.34±12.33 mm^2 | – | 246.31±2.74 mm^2 | – | – | – | 51.31±10.08 mm^2 | – | 67.79±4.308 mm^2 | – | 267.69±9.21 mm^2 | 299.58±7.04 mm^2 | – | 138.31±3.36 mm^2 | – | 226.55±2.96 mm^2 | – | – | – | – |
